Experimental data taken from ChEMBL document CHEMBL1201862, “PubChem BioAssay data set” (2004).
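Step 1: Grow cells in 96-well plates. Step 2: Expose to compound for 48 hours at 5 concentrations. Step 3: Interpolate endpoints linearly; if unreached, use highest concentration. GI50 is the concentration that inhibits growth by half.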 Active and inactive are the calls of the source. Cut-off read from the data, not from the text of the source: active = GI50 up to about 1.1 µM and inactive = higher.

What was measured:
Experiment in all cases: NCI anticancer screen, dose series, 48 h
786-0 = test system: 786-0
A498 = test system: A498
A549 = test system: A549
ACHN = test system: ACHN
BT-549 = test system: BT-549
CAKI-1 = test system: CAKI-1
CCRF-CEM = test system: CCRF-CEM
COLO 205 = test system: COLO 205
DMS-273 = test system: DMS-273
DU-145 = test system: DU-145
EKVX = test system: EKVX
HCC 2998 = test system: HCC 2998
HCT-116 = test system: HCT-116
HCT-15 = test system: HCT-15
HOP-62 = test system: HOP-62
HOP-92 = test system: HOP-92
HT-29 = test system: HT-29
Hs-578T = test system: Hs-578T
KM-20L2 = test system: KM-20L2
KM12 = test system: KM12
LOX IMVI = test system: LOX IMVI
LXFL 529 = test system: LXFL 529
M14 = test system: M14
MCF7 = test system: MCF7
MDA-MB-231 = test system: MDA-MB-231
MDA-MB-435 = test system: MDA-MB-435
MDA-N = test system: MDA-N
MOLT-4 = test system: MOLT-4
Malme-3M = test system: Malme-3M
NCI-H226 = test system: NCI-H226
NCI-H23 = test system: NCI-H23
NCI-H460 = test system: NCI-H460
NCI-H522 = test system: NCI-H522
NCI/ADR-RES = test system: NCI/ADR-RES
OVCAR-3 = test system: OVCAR-3
OVCAR-4 = test system: OVCAR-4
OVCAR-5 = test system: OVCAR-5
OVCAR-8 = test system: OVCAR-8
PC-3 = test system: PC-3
RXF 393 = test system: RXF 393
RXF 631 = test system: RXF 631
SF-268 = test system: SF-268
SF-295 = test system: SF-295
SF-539 = test system: SF-539
SK-MEL-28 = test system: SK-MEL-28
SK-MEL-2 = test system: SK-MEL-2
SK-MEL-5 = test system: SK-MEL-5
SK-OV-3 = test system: SK-OV-3
SN12C = test system: SN12C
SNB-19 = test system: SNB-19
SNB-75 = test system: SNB-75
SNB-78 = test system: SNB-78
SW-620 = test system: SW-620
T47D = test system: T47D
TK-10 = test system: TK-10
U-251 = test system: U-251
UACC-257 = test system: UACC-257
UACC-62 = test system: UACC-62
UO-31 = test system: UO-31

In the case of CCN(CC)CCC(=O)O[C@H]1CC[C@H](CC(C)[C@H]2CC(=O)C(C)C=C(C)[C@H](OC(=O)CCN(CC)CC)C(OC)C(=O)[C@@H](C)CC(C)/C=C/C=C/C=C(C)C(OC)CC3CC[C@H](C)[C@](O)(O3)C(=O)C(=O)N3CCCCC3C(=O)O2)CC1OC (some centres undefined), the GI50 (786-0) is reported as 19.7 nM (active), the GI50 (A498) is reported as 16.1 nM (active) and the GI50 (A549) is reported as 251 nM (active). For the same compound, the GI50 (ACHN) was 348 nM (active), the GI50 (BT-549) was < 10 nM (active) and the GI50 (CAKI-1) was 108 nM (active). For the same compound, the GI50 (CCRF-CEM) was < 11.9 nM (active), the GI50 (COLO 205) was 906 nM (active) and the GI50 (DMS-273) was 361 nM (active). For the same compound, the GI50 (DU-145) was 179 nM (active), the GI50 (EKVX) was 25 nM (active) and the GI50 (HCC 2998) was 267 nM (active). The GI50 (HCT-116) was 865 nM (active), the GI50 (HCT-15) was 137 nM and the GI50 (HOP-62) was < 10 nM (active). For the same compound, the GI50 (HOP-92) was 34.8 nM (active), the GI50 (HT-29) was 210 nM (active) and the GI50 (Hs-578T) was 34.5 nM (active). The GI50 (KM-20L2) was 1600 nM (inactive), the GI50 (KM12) was 443 nM (active) and the GI50 (LOX IMVI) was 22.2 nM (active). The GI50 (LXFL 529) was < 10 nM (active), the GI50 (M14) was 350 nM (active) and the GI50 (MCF7) was < 26 nM (active). For the same compound, the GI50 (MDA-MB-231) was 228 nM (active), the GI50 (MDA-MB-435) was 264 nM (active) and the GI50 (MDA-N) was 294 nM (active). For the same compound, the GI50 (MOLT-4) was 18.5 nM (active), the GI50 (Malme-3M) was < 10.8 nM (active) and the GI50 (NCI-H226) was 20.9 nM (active). For the same compound, the GI50 (NCI-H23) was 161 nM (active), the GI50 (NCI-H460) was 157 nM (active) and the GI50 (NCI-H522) was 27.6 nM (active). The GI50 (NCI/ADR-RES) was 697 nM (active), the GI50 (OVCAR-3) was 202 nM (active) and the GI50 (OVCAR-4) was < 13.2 nM (active). For the same compound, the GI50 (OVCAR-5) was 1310 nM (inactive), the GI50 (OVCAR-8) was 36.2 nM (active) and the GI50 (PC-3) was < 19.5 nM (active). The GI50 (RXF 393) was 11 nM (active), the GI50 (RXF 631) was 406 nM (active) and the GI50 (SF-268) was 348 nM (active). The GI50 (SF-295) was 21.8 nM (active), the GI50 (SF-539) was 18.5 nM (active) and the GI50 (SK-MEL-28) was 28.4 nM (active). The GI50 (SK-MEL-2) was 21.4 nM (active), the GI50 (SK-MEL-5) was 173 nM (active) and the GI50 (SK-OV-3) was 31.4 nM (active). The GI50 (SN12C) was 84.7 nM (active), the GI50 (SNB-19) was 57.1 nM (active) and the GI50 (SNB-75) was 17.9 nM (active). For the same compound, the GI50 (SNB-78) was < 10 nM (active), the GI50 (SW-620) was 266 nM (active) and the GI50 (T47D) was 14.4 nM (active). The GI50 (TK-10) was 627 nM (active), the GI50 (U-251) was 88.3 nM (active) and the GI50 (UACC-257) was 1320 nM (inactive). The GI50 (UACC-62) was 44.8 nM (active) and the GI50 (UO-31) was < 10 nM (active).
